From patent publication US8288352B2, “Auristatins having an aminobenzoic acid unit at the N terminus” (priority 2004, dated 2012)
Read-outs that look alike come from different tables or passages of the source. Non-standard residues stand in square brackets, D forms with d. Residues, ends and D or L forms follow the SMILES beside them. *: point of attachment. Dolaproine = CO[C@@H]([C@@H]1CCCN1)[C@@H](C)C(=O)O; Dil = CC[C@H](C)[C@H](NC)[C@@H](CC(=O)O)OC; X1 = C[C@@H](N*)[C@@H](O)c1ccccc1; NMeV = CN[C@H](C(=O)O)C(C)C

Key:
[1] = test system: H3396 human breast carcinoma; experiment: In vitro cytotoxicity (alamarBlue) on H3396; type: cell-based; details: read-out: IC50 values
Experimental: (§1) Table 6 summarizes cytotoxic activity of MMAF, 100, 103, 107 on H3396 human breast carcinoma and Karpas-299 anaplastic large cell lymphoma cell lines assayed. To evaluate the cytotoxicity of Compounds 100, 103, and 107, cells were seeded at approximately 10,000 per well in 150 μl of culture medium containing graded doses of Compounds 100, 103, and 107 in quadruplicates at the initiation of assay. Cytotoxicity assays were usually carried out for 96 hours. Fifty μl of the alamarBlue™ dye was added to each well during the last 4 to 6 hours of the incubation to assess viable cells at the end of culture. Dye reduction was determined by fluorescence spectrometry using the excitation and emission wavelengths of 535 nm and 590 nm, respectively. For analysis, the extent of alamarBlue™ reduction by the treated cells was compared to that of the untreated control cells.

[2] = test system: Karpas-299 anaplastic large cell lymphoma cell line (CD30+); experiment: In vitro cytotoxicity (alamarBlue) on Karpas 299; type: cell-based, human
Experimental: as §1

[3] = Homo sapiens, KARPAS-299, 96 h, read-out: IC50 values
[4] = karpas 299, 96 hours, alamarBlue, read-out: IC50 values

| Compound | IC50 ([1]; Homo sapiens, H3396, 96 h) | IC50 [2, 3] | IC50 ([1]; H3396, 96 hours, alamarBlue) | IC50 [2, 4] | IC50 ([2]; cAC10 conjugates, all 4 drugs/Ab, CD30+ cell line Karpas 299) |
| --- | --- | --- | --- | --- | --- |
| CC[C@H](C)[C@@H]([C@@H](CC(=O)N1CCC[C@H]1[C@H](OC)[C@@H](C)C(=O)N[C@@H](Cc1ccccc1)C(=O)OC(C)(C)C)OC)N(C)C(=O)[C@@H](NC(=O)c1ccc(N)cc1)C(C)C [Compound 100, 4-Abz-Val-Dil-Dap-Phe-OtBu] | 17.8 nM | 1.8 nM |  |  |  |
| CC[C@H](C)[C@@H]([C@@H](CC(=O)N1CCC[C@H]1[C@H](OC)[C@@H](C)C(=O)N[C@@H](Cc1ccccc1)C(=O)O)OC)N(C)C(=O)[C@@H](NC(=O)c1ccc(N)cc1)C(C)C [Compound 103, 4-Abz-Val-Dil-Dap-Phe] | > 100 nM | 43 nM |  |  |  |
| CC[C@H](C)[C@@H]([C@@H](CC(=O)N1CCC[C@H]1[C@H](OC)[C@@H](C)C(=O)N[C@@H](Cc1ccccc1)C(=O)OC)OC)N(C)C(=O)[C@@H](NC(=O)c1ccc(N)cc1)C(C)C [Compound 107, 4-Abz-Val-Dil-Dap-Phe-OMe] | 0.003 nM | 0.12 nM |  |  |  |
| CC[C@H](C)[C@@H]([C@@H](CC(=O)N1CCC[C@H]1[C@H](OC)[C@@H](C)C(=O)N[C@H](C)[C@@H](O)c1ccccc1)OC)N(C)C(=O)[C@@H](NC(=O)[C@@H](NC)C(C)C)C(C)C [MMAE, mono-methyl auristatin E, reference compound] (H-[NMeV]V[Dil][Dolaproine]-X1) |  |  | 0.8 nM | 0.13 nM |  |
| CC[C@H](C)[C@@H]([C@@H](CC(=O)N1CCC[C@H]1[C@H](OC)[C@@H](C)C(=O)N[C@@H](Cc1ccccc1)C(=O)O)OC)N(C)C(=O)[C@@H](NC(=O)[C@@H](NC)C(C)C)C(C)C [MMAF, N-methylvaline-valine-dolaisoleuine-dolaproine-phenylalanine, reference compound] (H-[NMeV]V[Dil][Dolaproine]F-OH) |  |  | 104 nM | 130 nM |  |
| cAC10-vc-MMAF: cAC10 Conjugate with Val-Cit linker and MMAF, average 4 drugs per antibody [reference compound] |  |  |  |  | 0.75 ng/mL |
